Experimental data: patent US8119647B2, “Fused pyrimidineone compounds as TRPV3 modulators” (Glenmark Pharmaceuticals S.A., priority 2008, dated 2012)
Where two headings read alike, the source gives them in different places.

Molecular target: T1, Human TRPV3 (Homo sapiens, UniProt Q8NET8)
T1 construct: expressed in transfected cells; host or cells: CHO cells (G-418 selection)
T1 sequence (Q8NET8 1-790): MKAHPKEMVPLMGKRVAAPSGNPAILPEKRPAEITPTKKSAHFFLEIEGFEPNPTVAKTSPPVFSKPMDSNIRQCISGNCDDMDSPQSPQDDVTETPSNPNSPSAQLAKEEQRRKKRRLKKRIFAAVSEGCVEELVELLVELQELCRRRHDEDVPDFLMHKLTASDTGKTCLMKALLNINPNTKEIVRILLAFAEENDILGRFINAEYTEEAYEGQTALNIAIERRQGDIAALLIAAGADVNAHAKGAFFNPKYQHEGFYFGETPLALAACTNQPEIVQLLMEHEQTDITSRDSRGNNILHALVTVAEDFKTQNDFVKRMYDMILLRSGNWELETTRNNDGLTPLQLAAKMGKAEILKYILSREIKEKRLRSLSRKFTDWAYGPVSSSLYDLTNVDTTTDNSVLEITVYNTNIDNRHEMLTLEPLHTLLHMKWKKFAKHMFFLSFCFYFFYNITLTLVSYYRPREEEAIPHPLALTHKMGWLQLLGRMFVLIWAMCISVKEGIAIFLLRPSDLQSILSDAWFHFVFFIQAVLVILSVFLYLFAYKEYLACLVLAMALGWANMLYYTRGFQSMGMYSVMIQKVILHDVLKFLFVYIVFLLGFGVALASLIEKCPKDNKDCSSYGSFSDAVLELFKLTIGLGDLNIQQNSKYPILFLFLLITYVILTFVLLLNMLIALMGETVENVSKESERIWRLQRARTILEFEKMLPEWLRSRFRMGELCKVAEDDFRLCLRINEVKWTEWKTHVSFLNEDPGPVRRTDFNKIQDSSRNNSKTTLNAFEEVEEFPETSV
Experiment: Screening for TRPV3 antagonist using the 45Calcium uptake assay (inhibition of 2-APB induced cellular uptake of radioactive calcium)
Format: cell-based
Settings: for inhibition at 1 µM: read-out: Percentage inhibition at 1.0 μM; for inhibition at 10 µM: read-out: Percentage inhibition at 10.0 μM; for IC50: class symbols
From the text: The illustrative examples of the present invention are screened for TRPV3 activity according to a modified procedure described in Tóth, A., Kedei, N., Wang, Y. and Blumberg, P. M. Life Sciences (2003), 73, 487-498. The screening of the compounds can be carried out by other methods and procedures known to a person skilled in the art. Such screening methods may be found in (a) Hu, H.-Z. et al. J. Biol. Chem. (2004), 279, 35741-35747; (b) Smith, G. D. et al. Nature (2002), 418, 186-190; (c) Peier, A. M. et al. Science (2002), 296, 2046-2049.
Screening for TRPV3 Antagonist Using the ^45Calcium Uptake Assay:
The inhibition of TRPV3 receptor activation was followed as inhibition of 2-aminoethoxydiphenylborate (2-APB) induced cellular uptake of radioactive calcium. Test compounds were dissolved in dimethyl sulfoxide (DMSO) to prepare 20 mM stock solution and then diluted using plain medium with DMEM/F-12 containing 1.8 mM CaCl2 to get desired concentration. Final concentration of DMSO in the reaction was 0.5% (v/v). Human TRPV3 expressing CHO cells were grown in DMEM/F-12 medium with 10% FBS, 1% penicillin-streptomycin solution, 400 μg/ml of G-418. Cells were seeded 24 h prior to the assay in 96 well plates so as to get ˜50,000 cells per well on the day of experiment. Cells were treated with test compounds for 10 minutes followed by addition of 2-APB at a final concentration of 500 μM and 5 μCi/ml ^45Ca^+2 for 4 minutes. Cells were washed and lysed using buffer containing 1% Triton X-100, 0.1% deoxycholate and 0.1% SDS. Radioactivity in the lysate was measured in Packardt Top count after addition of liquid scintillant. Concentration response curves were plotted as a % of maximal response obtained in the absence of test antagonist. IC50 value was calculated from concentration response curve by nonlinear regression analysis using GraphPad PRISM software.
Percentage inhibition at concentrations of 1.0 μM and 10.0 μM are given in the table along with IC50 (nM) values for selected examples.

[1] = 1.0 μM test compound, human TRPV3 expressing CHO cells, 2-APB 500 μM
[2] = 10.0 μM test compound, human TRPV3 expressing CHO cells, 2-APB 500 μM
[3] = human TRPV3 expressing CHO cells, 2-APB 500 μM

## CCOc1ccc(-c2c(/C=C/c3cccc(OC)c3OCC3CC3)nc3sccn3c2=O)cc1 [Example 44, 7-[(E)-2-(2-Cyclopropylmethoxy-3-methoxyphenyl)-1-ethenyl]-6-(4-ethoxyphenyl)-5H-[1,3]thiazolo[3,2-a]pyrimidin-5-one]
[1]
  inhibition at 1 µM: 44%
[2]
  inhibition at 10 µM: 88.6%

## COc1cccc(/C=C/c2nc3sccn3c(=O)c2-c2ccc(OCC(F)(F)F)cc2)c1OCC1CC1 [Example 45, 7-[(E)-2-(2-Cyclopropylmethoxy-3-methoxyphenyl)-1-ethenyl]-6-(4-(2,2,2-trifluoroethoxy)phenyl]-5H-[1,3]thiazolo[3,2-a]pyrimidin-5-one]
[1]
  inhibition at 1 µM: 30.7%
[2]
  inhibition at 10 µM: 77.5%

## COc1cccc(/C=C/c2nc3sccn3c(=O)c2-c2ccc(OCCCC#N)cc2)c1OCC1CC1 [Example 46]
CHO
  inhibition at 1 µM: 10%
  inhibition at 10 µM: 52.8%

## COc1cccc(/C=C/c2nc3sccn3c(=O)c2-c2ccc(OCC3CC3)cc2)c1OCC1CC1 [Example 47, 7-[(E)-2-(2-Cyclopropylmethoxy-3-methoxyphenyl)-1-ethenyl]-6-(4-cyclopropylmethoxyphenyl]-5H-[1,3]thiazolo[3,2-a]pyrimidin-5-one]
[1]
  inhibition at 1 µM: 43.7%
[2]
  inhibition at 10 µM: 69.2%

## COc1cccc(/C=C/c2nc3sccn3c(=O)c2-c2ccc(OC(F)F)cc2)c1OCC1CC1 [Example 48, 7-[(E)-2-(2-Cyclopropylmethoxy-3-methoxyphenyl)-1-ethenyl]-6-(4-difluoromethoxyphenyl]-5H-[1,3]thiazolo[3,2-a]pyrimidin-5-one]
[1]
  inhibition at 1 µM: 80%
[2]
  inhibition at 10 µM: 95.1%
[3]
  IC50: < 250 nM

## O=c1c(-c2ccc(OC(F)(F)F)cc2)c(/C=C/c2cccc(F)c2OCC2CC2)nc2sccn12 [Example 49, 7-[(E)-2-(2-Cyclopropylmethoxy-3-fluorophenyl)-1-ethenyl]-6-[4-(trifluoromethoxy)-phenyl]-5H-[1,3]thiazolo[3,2-a]pyrimidin-5-one]
[1]
  inhibition at 1 µM: 41.3%
[2]
  inhibition at 10 µM: 77.3%

## COc1cccc(/C=C/c2nc3sccn3c(=O)c2-c2ccc(OC(F)(F)F)cc2)c1OCCC(C)C [Example 50, 7-[(E)-2-{2-Isopentyloxy-3-methoxyphenyl}-1-ethenyl]-6-[4-(trifluoromethoxy)phenyl]-5H-[1,3]thiazolo[3,2-a]pyrimidin-5-one]
[1]
  inhibition at 1 µM: 81.9%
[2]
  inhibition at 10 µM: 89.8%
[3]
  IC50: < 250 nM

## COc1cccc(/C=C/c2nc3sccn3c(=O)c2-c2ccc(OC(F)(F)F)cc2)c1OCC(C)C [Example 51, 7-[(E)-2-(2-Isobutoxy-3-methoxyphenyl)-1-ethenyl]-6-[4-(trifluoromethoxy)phenyl]-5H-[1,3]thiazolo[3,2-a]pyrimidin-5-one]
[1]
  inhibition at 1 µM: 89.1%
[2]
  inhibition at 10 µM: 95.6%
[3]
  IC50: < 250 nM

## COc1cccc(/C=C/c2nc3sccn3c(=O)c2-c2ccc(OC(F)(F)F)cc2)c1OCC(C)(C)C [Example 52, 7-[(E)-2-{3-Methoxy-2-neopentyloxyphenyl}-1-ethenyl]-6-[4-(trifluoromethoxy)phenyl]-5H-[1,3]thiazolo[3,2-a]pyrimidin-5-one]
[1]
  inhibition at 1 µM: 78.4%
[2]
  inhibition at 10 µM: 90.3%
[3]
  IC50: < 250 nM

## CCOCCOc1c(/C=C/c2nc3sccn3c(=O)c2-c2ccc(OC(F)(F)F)cc2)cccc1OC [Example 53, 7-[(E)-2-{2-(2-Ethoxyethoxy)-3-methoxyphenyl}-1-ethenyl]-6-[4-(trifluoromethoxy)phenyl]-5H-[1,3]thiazolo[3,2-a]pyrimidin-5-one]
[1]
  inhibition at 1 µM: 89.9%
[2]
  inhibition at 10 µM: 95.9%
[3]
  IC50: < 250 nM

## CCCOc1c(/C=C/c2nc3sccn3c(=O)c2-c2ccc(OC(F)(F)F)cc2)cccc1OC [Example 54, 7-[(E)-2-(3-Methoxy-2-propoxyphenyl)-1-ethenyl]-6-[4-(trifluoromethoxy)phenyl]-5H-[1,3]thiazolo[3,2-a]pyrimidin-5-one]
[1]
  inhibition at 1 µM: 72.8%
[2]
  inhibition at 10 µM: 95.3%
[3]
  IC50: < 250 nM
